# Laboratory results: ChEMBL document CHEMBL3045772, “Amide derivatives of [6-acyl-2-benzothiazolinon-3-yl] acetic acids as potential analgesic and anti-inflammatory compounds” (Med Chem Res, 2010)
# The source made the active and inactive calls. The rule behind the calls is not given here.
# Legend:
# [1] = molecular target: Prostaglandin G/H synthase 1 (Homo sapiens) (UniProt P23219); conditions: Blood, at 10 µM;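 also: human whole blood assay, COX-1 activity read out as TXB2 level by enzyme immunoassay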
# Description: Inhibition of cyclooxygenase-1 in Homo sapiens (human) whole blood assessed as TXB2 level at 10 uM by EIA
# [2] = test system: Mus musculus; assay: Anti-inflammatory activity in Mus musculus Swiss albino (mouse) assessed as inhibition of carrageenan-induced edema at 100 mg/kg, po pretreated 60 min before carrageenan-challenge measured after 180 min; type: functional
# [3] = test system: Mus musculus; assay: Anti-inflammatory activity in Mus musculus Swiss albino (mouse) assessed as inhibition of carrageenan-induced edema at 100 mg/kg, po pretreated 60 min before carrageenan-challenge measured after 90 min; type: functional
# [4] = molecular target: T1, Prostaglandin G/H synthase 2 (Homo sapiens) (UniProt P35354); conditions: Blood, at 10 µM;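 also: human whole blood COX-2 activity read out as PGE2 level measured by enzyme immunoassay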
# T1 sequence (whole entry): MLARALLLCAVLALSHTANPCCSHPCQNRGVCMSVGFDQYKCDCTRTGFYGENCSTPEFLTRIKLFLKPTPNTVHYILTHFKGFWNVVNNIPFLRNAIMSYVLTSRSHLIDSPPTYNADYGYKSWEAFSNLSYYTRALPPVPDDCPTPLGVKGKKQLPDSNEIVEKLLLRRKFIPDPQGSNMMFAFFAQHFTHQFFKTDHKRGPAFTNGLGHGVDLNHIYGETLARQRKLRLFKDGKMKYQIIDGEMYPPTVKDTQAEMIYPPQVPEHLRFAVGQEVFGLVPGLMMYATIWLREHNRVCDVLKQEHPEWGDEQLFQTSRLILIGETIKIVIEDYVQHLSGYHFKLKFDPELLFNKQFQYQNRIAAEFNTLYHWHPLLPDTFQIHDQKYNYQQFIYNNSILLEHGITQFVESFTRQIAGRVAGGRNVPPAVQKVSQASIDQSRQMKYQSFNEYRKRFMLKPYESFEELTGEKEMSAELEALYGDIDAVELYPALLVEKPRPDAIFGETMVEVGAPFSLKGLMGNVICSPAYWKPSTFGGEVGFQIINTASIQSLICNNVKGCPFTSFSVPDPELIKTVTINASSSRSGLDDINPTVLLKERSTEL
# Description: Inhibition of cyclooxygenase-2 in Homo sapiens (human) whole blood assessed as PGE2 level at 10 uM by EIA
# [5] = test system: Mus musculus; assay: Analgesic activity in Mus musculus Swiss albino (mouse) assessed as inhibition of p-benzoquinone-induced writhing at 100 mg/kg, po pretreated 60 min before p-benzoquinone challenge; type: functional
# [6] = test system: Mus musculus; assay: Anti-inflammatory activity in Mus musculus Swiss albino (mouse) assessed as inhibition of carrageenan-induced edema at 100 mg/kg, po pretreated 60 min before carrageenan-challenge measured after 360 min; type: functional
# [7] = test system: Mus musculus; assay: Gastrointestinal toxicity in Mus musculus Swiss albino (mouse) assessed as ratio of ulcer at 100 mg/kg, po measured after 2 hr; type: organism-based; design: dose 100 mg/kg, route oral; conditions: in vivo
# [8] = test system: Mus musculus; assay: Anti-inflammatory activity in Mus musculus Swiss albino (mouse) assessed as inhibition of carrageenan-induced edema at 100 mg/kg, po pretreated 60 min before carrageenan-challenge measured after 270 min; type: functional
# [9] = molecular target: T2, Polyunsaturated fatty acid 5-lipoxygenase (Homo sapiens) (UniProt P09917); assay: Inhibition of 5-LOX (unknown origin) at 10 uM
# T2 sequence (whole entry): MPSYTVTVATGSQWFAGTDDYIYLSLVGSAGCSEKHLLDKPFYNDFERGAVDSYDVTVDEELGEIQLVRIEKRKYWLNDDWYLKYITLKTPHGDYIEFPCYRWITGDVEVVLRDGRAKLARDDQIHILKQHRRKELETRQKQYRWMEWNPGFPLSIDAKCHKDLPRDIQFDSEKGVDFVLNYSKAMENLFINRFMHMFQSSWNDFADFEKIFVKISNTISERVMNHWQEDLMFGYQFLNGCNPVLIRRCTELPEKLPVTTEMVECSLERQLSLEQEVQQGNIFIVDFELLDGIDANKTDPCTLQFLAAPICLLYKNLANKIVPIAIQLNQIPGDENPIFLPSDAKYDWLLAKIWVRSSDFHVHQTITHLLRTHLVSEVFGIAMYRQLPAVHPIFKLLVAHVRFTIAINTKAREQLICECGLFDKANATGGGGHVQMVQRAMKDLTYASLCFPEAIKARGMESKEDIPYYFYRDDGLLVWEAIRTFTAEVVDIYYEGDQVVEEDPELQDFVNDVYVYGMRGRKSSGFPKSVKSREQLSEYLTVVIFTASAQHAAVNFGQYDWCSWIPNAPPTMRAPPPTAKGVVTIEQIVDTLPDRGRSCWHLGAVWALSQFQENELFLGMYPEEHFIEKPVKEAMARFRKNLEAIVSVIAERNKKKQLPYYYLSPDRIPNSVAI
# Prostaglandin G/H synthase 1 (Homo sapiens), sequence (P23219 whole entry): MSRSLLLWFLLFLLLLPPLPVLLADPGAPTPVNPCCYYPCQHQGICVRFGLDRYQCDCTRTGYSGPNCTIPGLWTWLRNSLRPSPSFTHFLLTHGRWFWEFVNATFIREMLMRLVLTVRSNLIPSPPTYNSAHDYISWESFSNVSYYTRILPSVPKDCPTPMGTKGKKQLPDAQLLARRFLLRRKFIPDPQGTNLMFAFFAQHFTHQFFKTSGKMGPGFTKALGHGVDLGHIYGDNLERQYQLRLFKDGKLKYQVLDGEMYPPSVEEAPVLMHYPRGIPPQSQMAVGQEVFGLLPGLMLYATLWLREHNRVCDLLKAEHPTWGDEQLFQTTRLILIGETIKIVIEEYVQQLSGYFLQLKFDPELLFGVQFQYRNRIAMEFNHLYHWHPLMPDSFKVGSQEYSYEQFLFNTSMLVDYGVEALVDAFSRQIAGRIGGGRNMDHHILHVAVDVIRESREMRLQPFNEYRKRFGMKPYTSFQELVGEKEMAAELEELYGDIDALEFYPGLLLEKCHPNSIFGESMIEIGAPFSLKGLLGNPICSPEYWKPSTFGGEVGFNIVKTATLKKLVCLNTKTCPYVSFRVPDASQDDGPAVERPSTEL
SMILES,inhibition [1],inhibition in vivo at 100 mg/kg [2],inhibition in vivo at 100 mg/kg [3],inhibition [4],inhibition in vivo at 100 mg/kg [5],inhibition in vivo at 100 mg/kg [6],Activity [7],inhibition in vivo at 100 mg/kg [8],inhibition [9],inhibition [2],inhibition [3],inhibition [6],inhibition [8],inhibition [5]
CS(=O)(=O)c1ccc(-c2cc(Br)sc2-c2ccc(F)cc2)cc1,100%,–,–,–,–,–,–,–,–,–,–,–,–,–
O=C(Cn1c(=O)sc2cc(C(=O)c3ccccc3F)ccc21)Nc1ccc(Cl)cc1,10.4%,29%,25.9%,inactive,54.3%,31.7%,Non-toxic,30.3%,inactive,–,–,–,–,–
O=C(Cn1c(=O)sc2cc(C(=O)c3ccccc3Cl)ccc21)Nc1ccc(Cl)cc1,39.2%,28.4%,25.8%,53.1%,47.3%,33.2%,Non-toxic,31.9%,inactive,–,–,–,–,–
O=C(Cn1c(=O)sc2cc(C(=O)c3ccccc3Cl)ccc21)Nc1ccccn1,45.2%,–,–,28.9%,15.5%,–,Non-toxic,–,3%,inactive,inactive,inactive,inactive,–
O=C(Cn1c(=O)sc2cc(C(=O)c3ccccc3)ccc21)Nc1ccccn1,49.8%,–,–,inactive,–,–,Non-toxic,–,inactive,inactive,inactive,inactive,inactive,inactive
O=C(Cn1c(=O)sc2cc(C(=O)c3ccccc3)ccc21)Nc1ccc(Cl)cc1,inactive,15.2%,6.6%,23.1%,26.5%,16.5%,Non-toxic,22.9%,inactive,–,–,–,–,–
O=C(Cn1c(=O)sc2cc(C(=O)c3ccccc3F)ccc21)Nc1cccc(Cl)c1,20.5%,18.4%,15.8%,19.3%,49.9%,28.2%,Non-toxic,25.5%,31%,–,–,–,–,–
O=C(Cn1c(=O)sc2cc(C(=O)c3ccccc3)ccc21)Nc1cccc(Cl)c1,inactive,10.7%,5.6%,inactive,23.1%,8%,Non-toxic,10.8%,46%,–,–,–,–,–
Cc1ccnc(NC(=O)Cn2c(=O)sc3cc(C(=O)c4ccccc4Cl)ccc32)c1,10.1%,3.5%,3.8%,inactive,8.1%,3.7%,Toxic,5.1%,11%,–,–,–,–,–
O=C(Cn1c(=O)sc2cc(C(=O)c3ccccc3)ccc21)Nc1ccccc1,40.4%,3.5%,3.6%,1.47%,17.3%,–,Non-toxic,12.5%,6%,–,–,–,–,–
O=C(Cn1c(=O)sc2cc(C(=O)c3ccccc3F)ccc21)Nc1ccccc1,5.61%,23.5%,11.3%,inactive,26.8%,19.5%,Non-toxic,22.6%,24%,–,–,–,–,–
Cc1cccc(NC(=O)Cn2c(=O)sc3cc(C(=O)c4ccccc4)ccc32)n1,inactive,–,–,inactive,–,–,Toxic,–,26%,inactive,inactive,inactive,inactive,inactive
CC(=O)Oc1ccccc1C(=O)O [ASPIRIN],–,–,–,–,50.1%,–,Toxic,–,–,–,–,–,–,–
O=C(Cn1c(=O)sc2cc(C(=O)c3ccccc3Cl)ccc21)Nc1cccc(Cl)c1,7.27%,22%,23.9%,inactive,41.8%,31.3%,Non-toxic,30.4%,35%,–,–,–,–,–
Cc1cccc(NC(=O)Cn2c(=O)sc3cc(C(=O)c4ccccc4Cl)ccc32)n1,9.84%,–,–,2.21%,15.9%,–,Non-toxic,–,28%,inactive,inactive,inactive,inactive,–
O=C(Cn1c(=O)sc2cc(C(=O)c3ccccc3Cl)ccc21)Nc1ccccc1,3.42%,11%,5.3%,inactive,20.6%,10.5%,Non-toxic,10.9%,16%,–,–,–,–,–
Cc1cccc(NC(=O)Cn2c(=O)sc3cc(C(=O)c4ccccc4F)ccc32)n1,28%,3.7%,1.7%,12.6%,22.2%,2.3%,Non-toxic,1.2%,20%,–,–,–,–,–
Cc1ccnc(NC(=O)Cn2c(=O)sc3cc(C(=O)c4ccccc4)ccc32)c1,50%,–,–,6.83%,–,–,Toxic,–,11%,inactive,inactive,inactive,inactive,inactive
Cc1ccnc(NC(=O)Cn2c(=O)sc3cc(C(=O)c4ccccc4F)ccc32)c1,1.98%,6.8%,2.8%,inactive,27%,4.6%,Toxic,6.1%,19%,–,–,–,–,–
O=C(Cn1c(=O)sc2cc(C(=O)c3ccccc3F)ccc21)Nc1ccccn1,17.8%,–,–,inactive,18.7%,–,Non-toxic,–,inactive,inactive,inactive,inactive,inactive,–
